Earlier results on one molecule are cited in patent US8263663B2, “Azide functionalized peptide targeting groups” (Intezyne Technologies, Inc., priority 2005, dated 2012).

SMILES strings stand for the structures.

The conditions of the data set: at similar concentrations (to 225 μg/mL).

As for `COc1cccc2c1C(=O)c1c(O)c3c(c(O)c1C2=O)C[C@@](O)(C(=O)CO)C[C@@H]3O[C@H]1C[C@H](N)[C@H](O)[C@H](C)O1` [DOX, doxorubicin], the hemolysis is on record as more than 10%.
